The series is described as follows: Water solubility test of cannabinoid:glucosamine complexes and pure cannabinoids (HPLC of supernatant). The class given is physicochemical. The following applies: thermodynamic from solid. The procedure:
If considered necessary, sonication can also be applied. Afterwards, the solution is centrifuged at 3.000 g for 3 minutes and the supernatant is transferred to a HPLC vial. Concentration of dissolved cannabinoids is determined by analysis on an Agilent 1260 Infinity (Santa Clara, CA, USA) HPLC system. The chromatographic method is adapted from the literature (Križman, 2019). In short, the separation is performed on a Phenomenex (Torrance, CA, USA) Luna C18 (2) (octadecyl silica) chromatographic column, with dimensions 150 mm×3 mm i.d., 3 μm particle size, and temperature set at 37° C. Mobile phase is isocratic consisting of water/acetonitrile with a ratio of 9:31 (v/v), with 0.1% formic acid (v/v) and 10 mM ammonium formate, at a flow rate of 0.8 mL/min and injection volume 5 μL. The UV detection wavelength is 275 nm. The concentration of cannabinoids is determined using an external standard method.
For water solubility studies, 1-1.5 mg of the prepared complex was mixed with 1 mL of distilled water and stirred for 5-10 min, if necessary also sonication was applied. Afterwards the solution was centrifuged at 3.000 g for 3 minutes and the supernatant was transferred to the vials. Concentration of dissolved cannabinoids was determined by HPLC-DAD system (Agilent 1260 Infinity, Santa Clara, CA, USA).

Where [1] appears, read: 1-1.5 mg sample in 1 mL distilled water, stirred 5-10 min, centrifuged, HPLC, printed as greater-than/less-than bounds, read-out: Water solubility of cannabinoid.

Read-outs that look alike come from different tables or passages of the source.

By solubility is commonly meant the concentration that dissolves in the medium under given conditions. Under “water”, `CCCCCc1cc(O)c(C/C=C(\C)CCC=C(C)C)c(O)c1` [CBG, cannabigerol] gave a solubility below 1 µg/mL.
On to `C=C(C)[C@@H]1CCC(C)=C[C@H]1c1c(O)cc(CCCCC)cc1O` [CBD, cannabidiol], for which the solubility under setting [1] was below 1 µg/mL.
Regarding `C=C(C)[C@@H]1CCC(C)=C[C@H]1c1c(O)cc(CCCCC)c(C(=O)O)c1O` [CBDA, cannabidiolic acid], the solubility under setting [1] is below 2 µg/mL.

The values are drawn from patent US20250197437A1, “CANNABINOID COMPLEXES WITH IMPROVED PROPERTIES” (KEMIJSKI INŠTITUT, priority 2022, published 2025).
